According to PubChem BioAssay AID226 (DTP/NCI, 2004):
“And” between values parts separate entries of the source, which are not always exact repeats. Equal values may be shown once. Inconclusive results and toxic doses are left out.

System: B6C3F1 mice, intracerebral ependymoblastoma, median survival T/C
Test: NCI In Vivo Anticancer Drug Screen. Data for tumor model Ependymoblastoma (intracerebral) in B6C3F1 mice
Settings: endpoint: median survival time, higher = longer survival
Protocol: The antitumor activity of compounds was measured in mice bearing transplantable tumors. Survival or tumor size were measured and the results are expressed as the measurement made in the treated group (T) divided by the measurement made in the vehicle treated control group (C). The tumor model used in this assay is Ependymoblastoma (intracerebral) in B6C3F1 mice

[1] = dose: 2.0 mg/kg/injection, schedule: Q01DX005 (ip), vehicle: Klucel (hydroxypropylcellulose) (HPC)
[2] = dose: 4.0 mg/kg/injection, schedule: Q01DX005 (ip), vehicle: Klucel (hydroxypropylcellulose) (HPC)
[3] = dose: 8.0 mg/kg/injection, schedule: Q01DX005 (ip), vehicle: Klucel (hydroxypropylcellulose) (HPC)
[4] = dose: 16.0 mg/kg/injection, schedule: Q01DX005 (ip), vehicle: Klucel (hydroxypropylcellulose) (HPC)
[5] = dose: 16.0 mg/kg/injection, schedule: Q01DX005 (ip), vehicle: saline with Tween-80
[6] = dose: 32.0 mg/kg/injection, schedule: Q01DX005 (ip), vehicle: Klucel (hydroxypropylcellulose) (HPC)
[7] = dose: 32.0 mg/kg/injection, schedule: Q01DX005 (ip), vehicle: saline with Tween-80
[8] = dose: 64.0 mg/kg/injection, schedule: Q01DX005 (ip), vehicle: Klucel (hydroxypropylcellulose) (HPC)
[9] = dose: 12.5 mg/kg/injection, schedule: Q01DX005 (ip), vehicle: Klucel (hydroxypropylcellulose) (HPC)
[10] = dose: 25.0 mg/kg/injection, schedule: Q01DX005 (ip), vehicle: Klucel (hydroxypropylcellulose) (HPC)
[11] = dose: 50.0 mg/kg/injection, schedule: Q01DX005 (ip), vehicle: Klucel (hydroxypropylcellulose) (HPC)

CCOC(=O)C(CC(C)C)NC(=O)C(Cc1ccc(N(CCCl)CCCl)cc1)NC(C)=O (configuration not stated)
T/C (dose: 1.0 mg/kg/injection, schedule: Q01DX005 (ip), vehicle: Klucel (hydroxypropylcellulose) (HPC)): 87 % of control
T/C [1]: 95 % of control
T/C [2]: 97 % of control and 106 % of control and 113 % of control
T/C (dose: 4.0 mg/kg/injection, schedule: Q01DX005 (ip), vehicle: saline with Tween-80): 104 % of control and 108 % of control
T/C [3]: 97 % of control and 102 % of control and 107 % of control
T/C (dose: 8.0 mg/kg/injection, schedule: Q01DX005 (ip), vehicle: saline with Tween-80): 101 % of control and 104 % of control
T/C [4]: 100 % of control and 102 % of control and 105 % of control
T/C [5]: 98 % of control and 105 % of control
T/C [6]: 105 % of control and 109 % of control and 110 % of control
T/C [7]: 106 % of control
T/C [8]: 115 % of control
T/C (dose: 64.0 mg/kg/injection, schedule: Q01DX005 (ip), vehicle: saline with Tween-80): 163 % of control

Nc1nc(SCc2ccccc2Cl)c2ncn(C3OC(CO)C(O)C3O)c2n1 (configuration not stated)
T/C [9]: 103 % of control and 104 % of control
T/C [10]: 98 % of control
T/C [11]: 110 % of control and 119 % of control

Nc1ncnc2c1ncn2C1OC(COP(=O)(O)O)C(O)C1O (configuration not stated)
T/C (dose: 25.0 mg/kg/injection, schedule: Q01DX005 (ip), vehicle: saline): 100 % of control
T/C (dose: 50.0 mg/kg/injection, schedule: Q01DX005 (ip), vehicle: saline): 106 % of control and 107 % of control
T/C (dose: 100.0 mg/kg/injection, schedule: Q01DX005 (ip), vehicle: saline): 105 % of control and 112 % of control
T/C (dose: 200.0 mg/kg/injection, schedule: Q01DX005 (ip), vehicle: saline): 107 % of control and 109 % of control
T/C (dose: 400.0 mg/kg/injection, schedule: Q01DX005 (ip), vehicle: saline): 106 % of control and 112 % of control
T/C (dose: 800.0 mg/kg/injection, schedule: Q01DX005 (ip), vehicle: saline): 117 % of control

O=C(NC1CCCCC1)OCc1c(COC(=O)NC2CCCCC2)c(-c2ccc(Cl)c(Cl)c2)n2c1CCC2
T/C (dose: 50.0 mg/kg/injection, schedule: Q01DX005 (ip), vehicle: saline with Tween-80): 99 % of control and 102 % of control
T/C (dose: 100.0 mg/kg/injection, schedule: Q01DX005 (ip), vehicle: saline with Tween-80): 92 % of control and 108 % of control
T/C (dose: 200.0 mg/kg/injection, schedule: Q01DX005 (ip), vehicle: saline with Tween-80): 104 % of control and 115 % of control
T/C (dose: 400.0 mg/kg/injection, schedule: Q01DX005 (ip), vehicle: saline with Tween-80): 115 % of control and 118 % of control
T/C (dose: 800.0 mg/kg/injection, schedule: Q01DX005 (ip), vehicle: saline with Tween-80): 106 % of control and 110 % of control

COC1C(CO)OC(n2cnc3c(=S)nc(N)[nH]c32)C1O (configuration not stated)
T/C [9]: 104 % of control
T/C [10]: 109 % of control
T/C [11]: 119 % of control
T/C (dose: 100.0 mg/kg/injection, schedule: Q01DX005 (ip), vehicle: Klucel (hydroxypropylcellulose) (HPC)): 106 % of control

O=NN(CCCl)C(=O)NC1CCCN(Cc2ccccc2)C1 (configuration not stated)
T/C (dose: 50.0 mg/kg/injection, schedule: Q01DX001 (ip), vehicle: distilled water + Tween-80): 178 % of control
T/C (dose: 100.0 mg/kg/injection, schedule: Q01DX001 (ip), vehicle: distilled water + Tween-80): 223 % of control

CC[C@H]1CN2CCc3cc(OC)c(OC)cc3[C@@H]2C[C@@H]1C[C@H]1NCCc2cc(OC)c(OC)cc21
T/C [1]: 100 % of control and 104 % of control
T/C [2]: 99 % of control and 105 % of control
T/C [3]: 105 % of control and 117 % of control

CN(C)N=Nc1ccc(C(N)=O)cc1
T/C [5]: 156 % of control
T/C [7]: 162 % of control

Nc1ccn(C2OC(COP(=O)(O)O)C(O)C2O)c(=O)n1 (configuration not stated)
T/C (dose: 16.0 mg/kg/injection, schedule: Q01DX005 (ip), vehicle: saline): 96 % of control
T/C (dose: 32.0 mg/kg/injection, schedule: Q01DX005 (ip), vehicle: saline): 95 % of control
T/C (dose: 64.0 mg/kg/injection, schedule: Q01DX005 (ip), vehicle: saline): 107 % of control
T/C (dose: 128.0 mg/kg/injection, schedule: Q01DX005 (ip), vehicle: saline): 112 % of control

CC(=O)O[C@]1(C(C)=O)CC[C@H]2[C@@H]3C[C@H](C)C4=CC(=O)CC[C@]4(C)[C@H]3CC[C@@]21C
T/C [3]: 96 % of control and 104 % of control
T/C [4]: 101 % of control and 122 % of control
T/C [6]: 101 % of control and 112 % of control
T/C [8]: 92 % of control and 97 % of control
T/C (dose: 128.0 mg/kg/injection, schedule: Q01DX005 (ip), vehicle: Klucel (hydroxypropylcellulose) (HPC)): 95 % of control and 98 % of control
T/C (dose: 256.0 mg/kg/injection, schedule: Q01DX005 (ip), vehicle: Klucel (hydroxypropylcellulose) (HPC)): 94 % of control and 97 % of control
